Laboratory results as given in US10800746B2, “Oxoalkyl-substituted phenyltriazole derivatives and uses thereof” (BAYER PHARMA AKTIENGESELLSCHAFT, priority 2016, dated 2020).

Assays:
[1] = molecular target: human V1a receptor (Homo sapiens (Human), UniProt P37288); assay: Cellular in vitro assay for vasopressin receptor activity, V1a receptor cell line (aequorin luminescence); format: cell-based; details: CHO cell line transfected with human V1a receptor; [Arg8]-vasopressin at EC50; read-out: IC50 hV1a
human V1a receptor, sequence (P37288 whole entry): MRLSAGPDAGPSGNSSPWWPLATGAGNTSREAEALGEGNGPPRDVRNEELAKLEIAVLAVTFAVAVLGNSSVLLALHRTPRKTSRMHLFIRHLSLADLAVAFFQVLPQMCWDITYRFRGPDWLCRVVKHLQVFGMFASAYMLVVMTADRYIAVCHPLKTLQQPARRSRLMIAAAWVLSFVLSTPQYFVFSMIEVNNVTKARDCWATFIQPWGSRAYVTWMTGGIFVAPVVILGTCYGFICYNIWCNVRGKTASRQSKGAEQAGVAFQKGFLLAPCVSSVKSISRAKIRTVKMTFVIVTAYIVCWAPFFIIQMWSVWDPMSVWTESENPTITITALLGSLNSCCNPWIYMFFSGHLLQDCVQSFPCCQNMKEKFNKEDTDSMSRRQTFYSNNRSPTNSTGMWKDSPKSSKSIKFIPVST
Procedure: (§1) The identification of agonists and antagonists of the V1a and V2 vasopressin receptors from humans, rats and dogs as well as the quantification of the activity of the compounds of the invention is carried out using recombinant cell lines. These cell lines originally derive from a hamster's ovary epithelial cell (Chinese Hamster Ovary, CHO K1, ATCC: American Type Culture Collection, Manassas, Va. 20108, USA). The test cell lines constitutively express the human, rat or dog V1a or V2 receptors. In case of the Gαq-coupled V1a receptors, cells are also stably transfected with a modified form of the calcium-sensitive photoproteins aequorin (human and rat V1a) or obelin (dog V1a), which, after reconstitution with the cofactor coelenterazine, emit light when there are increases in free calcium concentrations [Rizzuto R, Simpson A W, Brini M, Pozzan T, Nature 358, 325-327 (1992); Illarionov B A, Bondar V S, Illarionova V A, Vysotski E S, Gene 153 (2), 273-274 (1995)]. The resulting vasopressin receptor cells react to stimulation of the recombinantly expressed V1a receptors by intracellular release of calcium ions, which can be quantified by the resulting photoprotein luminescence. The Gs-coupled V2 receptors are stably transfected into cell lines expressing the gene for firefly luciferase under control of a CRE-responsible promoter. Activation of V2 receptors induces the activation of the CRE-responsive promoter via cAMP increase, thereby inducing the expression of firefly luciferase. The light emitted by photoproteins of V1a cell lines as well as the light emitted by firefly luciferase of V2 cell lines corresponds to the activation or inhibition of the respective vasopressin receptor. The bioluminescence of the cell lines is detected using a suitable luminometer [Milligan G, Marshall F, Rees S, Trends in Pharmacological Sciences 17, 235-237 (1996)].
On the day before the assay, the cells are plated out in culture medium (DMEM/F12, 2% FCS, 2 mM glutamine, 10 mM HEPES, 5 μg/ml coelenterazine) in 384-well microtiter plates and kept in a cell incubator (96% humidity, 5% v/v CO2, 37° C.). On the day of the assay, test compounds in various concentrations are placed for 10 minutes in the wells of the microtiter plate before the agonist [Arg^8]-vasopressin at EC50 concentration is added. The resulting light signal is measured immediately in the luminometer.

[2] = molecular target: human V2 receptor (Homo sapiens (Human), UniProt P30518); assay: Cellular in vitro assay for vasopressin receptor activity, V2 receptor cell line (CRE-luciferase); format: cell-based; details: CHO cell line transfected with human V2 receptor; [Arg8]-vasopressin at EC50; read-out: IC50 hV2
human V2 receptor, sequence (P30518 whole entry): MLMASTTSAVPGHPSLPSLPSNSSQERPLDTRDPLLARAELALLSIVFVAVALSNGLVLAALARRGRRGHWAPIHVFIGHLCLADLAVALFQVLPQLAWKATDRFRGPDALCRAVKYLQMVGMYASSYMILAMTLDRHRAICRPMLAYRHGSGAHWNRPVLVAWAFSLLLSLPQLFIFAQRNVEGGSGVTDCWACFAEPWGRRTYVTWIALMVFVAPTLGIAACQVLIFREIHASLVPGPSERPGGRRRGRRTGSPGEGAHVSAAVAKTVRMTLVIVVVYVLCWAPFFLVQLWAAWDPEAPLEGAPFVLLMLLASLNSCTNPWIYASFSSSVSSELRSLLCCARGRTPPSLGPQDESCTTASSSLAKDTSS
Procedure: as §1
On the day before the assay, the cells are plated out in culture medium (DMEM/F12, 2% FCS, 2 mM glutamine, 10 mM HEPES) in 384-well microtiter plates and kept in a cell incubator (96% humidity, 5% v/v CO2, 37° C.). […] Upon addition of the cell lysis reagent Triton™ and the substrate luciferin, luminescence of firefly luciferase is measured in a luminometer.

[3] = system: Wistar rats; assay: Diuresis investigations in conscious rats kept in metabolism cages; format: in vivo; details: rat
Procedure: Wistar rats (220-450 g body weight) are kept with free access to feed (Altromin) and drinking water. During the experiment, the animals are kept with free access to drinking water for 4 to 8 or up to 24 hours individually in metabolism cages suitable for rats of this weight class (Tecniplast Deutschland GmbH, D-82383 Hohenpeißenberg). At the beginning of the experiment, the animals are administered the test substance in a volume of 1 to 3 ml/kg body weight of a suitable solvent by means of gavage into the stomach. Control animals only receive solvent. Controls and substance tests are carried out in parallel on the same day. Control groups and substance-dose groups each consist of 4 to 8 animals. During the experiment, the urine excreted by the animals is collected continuously in a receiver at the base of the cage. The volume of urine per time unit is determined separately for each animal, and the concentration of urinary electrolytes is measured by standard methods of flame photometry. Before the beginning of the experiment, the body weight of the individual animals is determined.

| SMILES | IC50 [1] | IC50 [2] | Urinary volume [% vs. control = 100%] ([3]; 0.3 mg/kg p.o.) | Urinary volume [% vs. control = 100%] ([3]; 3.0 mg/kg p.o.) |
| --- | --- | --- | --- | --- |
| CC(=O)c1nc(Cn2nc(-c3ccc(Cl)cc3)n(C[C@H](O)C(F)(F)F)c2=O)nn1-c1cccc(Cl)c1 [Example 1, 2-{[5-Acetyl-1-(3-chlorophenyl)-1H-1,2,4-triazol-3-yl]methyl}-5-(4-chlorophenyl)-4-[(2S)-3,3,3-trifluoro-2-hydroxypropyl]-2,4-dihydro-3H-1,2,4-triazol-3-one] | 34.5 nM | 2.3 nM | 344 % vs. control = 100% | 554 % vs. control = 100% |
| CC(=O)c1nc(Cn2nc(-c3ccc(Cl)cc3)n(C[C@H](O)C(F)(F)F)c2=O)nn1-c1cccc(F)c1 [Example 2, 2-{[5-Acetyl-1-(3-fluorophenyl)-1H-1,2,4-triazol-3-yl]methyl}-5-(4-chlorophenyl)-4-[(2S)-3,3,3-trifluoro-2-hydroxypropyl]-2,4-dihydro-3H-1,2,4-triazol-3-one] | 7.5 nM | 6.2 nM | – | – |
| CC(=O)c1nc(Cn2nc(-c3ccc(Cl)cc3)n(C[C@H](O)C(F)(F)F)c2=O)nn1-c1ccccc1Cl [Example 3, 2-{[5-Acetyl-1-(2-chlorophenyl)-1H-1,2,4-triazol-3-yl]methyl}-5-(4-chlorophenyl)-4-[(2S)-3,3,3-trifluoro-2-hydroxypropyl]-2,4-dihydro-3H-1,2,4-triazol-3-one] | 0.5 nM | 4.9 nM | 172 % vs. control = 100% | 679 % vs. control = 100% |
| CC(=O)c1nc(Cn2nc(-c3ccc(Cl)cc3)n(CC(=O)C(F)(F)F)c2=O)nn1-c1cccc(Cl)c1 [Example 4, 2-{[5-Acetyl-1-(3-chlorophenyl)-1H-1,2,4-triazol-3-yl]methyl}-5-(4-chlorophenyl)-4-(3,3,3-trifluoro-2-oxopropyl)-2,4-dihydro-3H-1,2,4-triazol-3-one] | 123 nM | 7.7 nM | – | – |
| CC(O)c1nc(Cn2nc(-c3ccc(Cl)cc3)n(CC(=O)C(F)(F)F)c2=O)nn1-c1cccc(Cl)c1 [Example 5, 5-(4-Chlorophenyl)-2-({1-(3-chlorophenyl)-5-[(1S,R)-1-hydroxyethyl]-1H-1,2,4-triazol-3-yl}methyl)-4-(3,3,3-trifluoro-2-oxopropyl)-2,4-dihydro-3H-1,2,4-triazol-3-one] | 55 nM | 2.8 nM | – | – |
| O=c1n(Cc2nnc(-c3ccccc3Cl)[nH]2)nc(-c2ccc(Cl)cc2)n1C[C@H](O)C(F)(F)F [Example No. WO 2011/104322 54] | – | – | 85 % vs. control = 100% | 188 % vs. control = 100% |
| COC(=O)Cn1nc(-c2ccccc2Cl)nc1Cn1nc(-c2ccc(Cl)cc2)n(C[C@H](O)C(F)(F)F)c1=O [Example No. WO 2011/104322 56] | 1.3 nM | 6.7 nM | 128 % vs. control = 100% | 85 % vs. control = 100% |
| O=C(O)Cn1nc(Cn2nc(-c3ccc(Cl)cc3)n(C[C@H](O)C(F)(F)F)c2=O)nc1-c1ccccc1Cl [Example No. WO 2011/104322 60] | – | – | 96 % vs. control = 100% | 84 % vs. control = 100% |
| NC(=O)Cn1nc(Cn2nc(-c3ccc(Cl)cc3)n(C[C@H](O)C(F)(F)F)c2=O)nc1-c1ccccc1Cl [Example No. WO 2011/104322 68] | – | – | 87 % vs. control = 100% | 121 % vs. control = 100% |
| O=c1n(Cc2cn(-c3ccccc3Cl)nn2)nc(-c2ccc(Cl)cc2)n1C[C@H](O)C(F)(F)F [Example No. WO 2011/104322 101] | – | – | 111 % vs. control = 100% | 255 % vs. control = 100% |
| O=c1n(Cc2cn(-c3ccccc3Cl)cn2)nc(-c2ccc(Cl)cc2)n1C[C@H](O)C(F)(F)F [Example No. WO 2011/104322 110] | – | – | 114 % vs. control = 100% | 274 % vs. control = 100% |
